Patent publication US6737383B1, “Herbicidal oxadiazolidines” (priority 1999, dated 2004)

What was measured:
[1] = test system: purple nutsedge; experiment: Test B pre/postemergence purple nutsedge; assay type: in vivo, Cyperus rotundus
Summary of the method: (§1)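 Herbicidal effect was estimated by eye on a ten-point control scale after plants spent twelve to sixteen days in a greenhouse following soil or foliar treatment. Foliar sprays targeted plants at one to four leaves; all doses were formulated in a non-phytotoxic solvent with surfactant.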

[2] = test system: sugar beet; experiment: Test B pre/postemergence sugar beet; assay type: in vivo, Beta vulgaris; conditions: for Plant response rating, Sugarbeets: Postemergence
Summary of the method: as §1

[3] = test system: crabgrass; experiment: Test B pre/postemergence crabgrass; assay type: in vivo, Digitaria sanguinalis
Summary of the method: as §1

[4] = test system: duck salad; experiment: Test B flood test duck salad; assay type: in vivo, Heteranthera limosa; conditions: Rate 250 g/ha; Pre-emergence (flood test species); scale 0 to 10, 0 is no effect, 10 is complete control
Summary of the method: (§2)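 Plants were grown to the 2-leaf stage before treatment with test chemical, then held in a greenhouse for twelve to sixteen days. Injury was visually rated against untreated controls on a 0–10 scale, where 0 is no effect and 10 is complete control.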

[5] = test system: pigweed; experiment: Test B pre/postemergence pigweed; assay type: in vivo, Amaranthus retroflexus; conditions: for Plant response rating, Redroot pigweed: Postemergence
Summary of the method: as §1

[6] = test system: corn; experiment: Test B pre/postemergence corn; assay type: in vivo, Zea mays
Summary of the method: as §1

[7] = test system: wheat; experiment: Test B pre/postemergence wheat; assay type: in vivo, Triticum aestivum; conditions: for Plant response rating, Wheat: Postemergence
Summary of the method: as §1

[8] = test system: bedstraw; experiment: Test B pre/postemergence bedstraw; assay type: in vivo, Galium aparine
Summary of the method: as §1

[9] = test system: morningglory; experiment: Test B pre/postemergence morningglory; assay type: in vivo, Ipomoea hederacea
Summary of the method: as §1

[10] = test system: blackgrass; experiment: Test B pre/postemergence blackgrass; assay type: in vivo, Alopecurus myosuroides
Summary of the method: as §1

[11] = test system: rice; experiment: Test B flood test rice; assay type: in vivo, Oryza sativa; conditions: Rate 250 g/ha; Pre-emergence (flood test species); scale 0 to 10, 0 is no effect, 10 is complete control
Summary of the method: as §2

[12] = test system: cocklebur; experiment: Test B pre/postemergence cocklebur; assay type: in vivo, Xanthium strumarium
Summary of the method: as §1

[13] = test system: soybean; experiment: Test B pre/postemergence soybean; assay type: in vivo, Glycine max; conditions: for Plant response rating, Soybean: Postemergence
Summary of the method: as §1

[14] = test system: bamyardgrass; experiment: Test B flood test barnyardgrass; assay type: in vivo, Echinochloa crus-galli; conditions: Rate 250 g/ha; Pre-emergence (flood test species); scale 0 to 10, 0 is no effect, 10 is complete control
Summary of the method: as §2

[15] = test system: surinam grass; experiment: Test B pre/postemergence surinam grass; assay type: in vivo, Brachiaria decumbens
Summary of the method: as §1

[16] = test system: wild oat; experiment: Test B pre/postemergence wild oat; assay type: in vivo, Avena fatua; conditions: for Plant response rating, Wild oats: Postemergence
Summary of the method: as §1

[17] = test system: velvetleaf; experiment: Test B pre/postemergence velvetleaf; assay type: in vivo, Abutilon theophrasti; conditions: for Plant response rating, Velvetleaf: Postemergence
Summary of the method: as §1

[18] = test system: smallflower flatsedge; experiment: Test B flood test smallflower flatsedge; assay type: in vivo, Cyperus difformis; conditions: Rate 250 g/ha; Pre-emergence (flood test species); scale 0 to 10, 0 is no effect, 10 is complete control
Summary of the method: as §2

[19] = test system: rape; experiment: Test B pre/postemergence rape; assay type: in vivo, Brassica napus
Summary of the method: as §1

[20] = test system: giant foxtail; experiment: Test B pre/postemergence giant foxtail; assay type: in vivo, Setaria faberii
Summary of the method: as §1

[21] = Postemergence, Rate 62 g/ha, scale of 0 to 10, 0 is no effect, 10 is complete control
[22] = Postemergence, Rate 125 g/ha, scale 0 to 10, 0 is no effect, 10 is complete control
[23] = Postemergence, Rate 500 g/ha, scale of 0 to 10 where 0 is no effect and 10 is complete control
[24] = Preemergence, Rate 62 g/ha, scale 0 to 10 (0 no effect, 10 complete control)
[25] = Preemergence, Rate 125 g/ha, scale 0 to 10, 0 is no effect, 10 is complete control
[26] = Preemergence, Rate 500 g/ha, scale of 0 to 10 where 0 is no effect and 10 is complete control
[27] = Rate 250 g/ha, Postemergence, scale of 0 to 10 where 0 is no effect and 10 is complete control
[28] = Rate 500 g/ha, scale of 0 to 10 where 0 is no effect and 10 is complete control
[29] = Rate 250 g/ha, scale of 0 to 10 where 0 is no effect and 10 is complete control

SMILES: Cc1noc(C)c1Cn1c(=O)on(C(=O)N(c2ccccc2)C(C)C)c1=O [Compound 569]
- Nutsedge plant response rating [1, 21]: 0
- Nutsedge plant response rating [1, 22]: 0
- Plant response rating, Nutsedge [1, 23]: 0
- Nutsedge plant response rating [1, 24]: 0
- Nutsedge plant response rating [1, 25]: 0
- Nutsedge plant response rating (0 to 10 scale) ([1]; Preemergence, Rate 250 g/ha): 0
- Nutsedge plant response rating [1, 26]: 0
- Plant response rating, Nutsedge [1, 27]: 0
- Plant response rating, Sugarbeets [2, 28]: 0
- Sugarbeets plant response rating [2, 24]: 0
- Sugarbeets plant response rating [2, 25]: 0
- Sugarbeets plant response rating (0 to 10 scale) ([2]; Preemergence, Rate 250 g/ha): 0
- Sugarbeets plant response rating [2, 26]: 3
- Plant response rating, Sugarbeets [2, 29]: 0
- Crabgrass plant response rating [3, 21]: 0
- Crabgrass plant response rating [3, 22]: 0
- Plant response rating, Crabgrass [3, 23]: 6
- Crabgrass plant response rating [3, 24]: 7
- Crabgrass plant response rating [3, 25]: 9
- Crabgrass plant response rating (0 to 10 scale) ([3]; Preemergence, Rate 250 g/ha): 9
- Crabgrass plant response rating [3, 26]: 9
- Plant response rating, Crabgrass [3, 27]: 6
- Ducksalad plant response rating [4]: 0
- Plant response rating, Redroot pigweed [5, 28]: 4
- Redroot pigweed plant response rating [5, 24]: 7
- Redroot pigweed plant response rating [5, 25]: 9
- Redroot pigweed plant response rating (0 to 10 scale) ([5]; Preemergence, Rate 250 g/ha): 9
- Redroot pigweed plant response rating [5, 26]: 10
- Plant response rating, Redroot pigweed [5, 29]: 4
- Corn plant response rating [6, 21]: 0
- Corn plant response rating [6, 22]: 0
- Plant response rating, Corn [6, 23]: 2
- Corn plant response rating [6, 24]: 0
- Corn plant response rating [6, 25]: 0
- Corn plant response rating (0 to 10 scale) ([6]; Preemergence, Rate 250 g/ha): 0
- Corn plant response rating [6, 26]: 9
- Plant response rating, Corn [6, 27]: 0
- Plant response rating, Wheat [7, 28]: 0
- Wheat plant response rating [7, 24]: 0
- Wheat plant response rating [7, 25]: 0
- Wheat plant response rating (0 to 10 scale) ([7]; Preemergence, Rate 250 g/ha): 0
- Wheat plant response rating [7, 26]: 4
- Plant response rating, Wheat [7, 29]: 0
- Bedstraw plant response rating [8, 21]: 0
- Bedstraw plant response rating [8, 24]: 0
- Bedstraw plant response rating [8, 25]: 3
- Bedstraw plant response rating (0 to 10 scale) ([8]; Preemergence, Rate 250 g/ha): 0
- Bedstraw plant response rating [8, 26]: 0
- Morningglory plant response rating [9, 21]: 3
- Morningglory plant response rating [9, 22]: 10
- Plant response rating, Morningglory [9, 23]: 10
- Morningglory plant response rating [9, 24]: 0
- Morningglory plant response rating [9, 25]: 0
- Morningglory plant response rating (0 to 10 scale) ([9]; Preemergence, Rate 250 g/ha): 0
- Morningglory plant response rating [9, 26]: 0
- Plant response rating, Morningglory [9, 27]: 10
- Blackgrass plant response rating [10, 21]: 0
- Blackgrass plant response rating [10, 22]: 0
- Plant response rating, Blackgrass [10, 23]: 3
- Blackgrass plant response rating [10, 24]: 0
- Blackgrass plant response rating [10, 25]: 0
- Blackgrass plant response rating (0 to 10 scale) ([10]; Preemergence, Rate 250 g/ha): 9
- Blackgrass plant response rating [10, 26]: 9
- Plant response rating, Blackgrass [10, 27]: 2
- Rice plant response rating [11]: 0
- Cocklebur plant response rating [12, 21]: 0
- Cocklebur plant response rating [12, 22]: 2
- Plant response rating, Cocklebur [12, 23]: 2
- Cocklebur plant response rating [12, 24]: 0
- Cocklebur plant response rating [12, 25]: 0
- Cocklebur plant response rating (0 to 10 scale) ([12]; Preemergence, Rate 250 g/ha): 0
- Cocklebur plant response rating [12, 26]: 0
- Plant response rating, Cocklebur [12, 27]: 2
- Plant response rating, Soybean [13, 28]: 4
- Soybean plant response rating [13, 24]: 0
- Soybean plant response rating [13, 25]: 0
- Soybean plant response rating (0 to 10 scale) ([13]; Preemergence, Rate 250 g/ha): 0
- Soybean plant response rating [13, 26]: 0
- Plant response rating, Soybean [13, 29]: 4
- Barnyardgrass plant response rating [14]: 0
- B. signalgrass plant response rating [15, 21]: 0
- B. signalgrass plant response rating [15, 22]: 0
- Plant response rating, B. signalgrass [15, 23]: 4
- B. signalgrass plant response rating [15, 24]: 0
- B. signalgrass plant response rating [15, 25]: 9
- B. signalgrass plant response rating (0 to 10 scale, 0 is no effect, 10 is complete control) ([15]; Preemergence, Rate 250 g/ha): 9
- B. signalgrass plant response rating [15, 26]: 9
- Plant response rating, B. signalgrass [15, 27]: 0
- Plant response rating, Wild oats [16, 28]: 0
- Wild oats plant response rating [16, 24]: 0
- Wild oats plant response rating [16, 25]: 0
- Wild oats plant response rating (0 to 10 scale) ([16]; Preemergence, Rate 250 g/ha): 6
- Wild oats plant response rating [16, 26]: 9
- Plant response rating, Wild oats [16, 29]: 0
- Plant response rating, Velvetleaf [17, 28]: 3
- Velvetleaf plant response rating [17, 24]: 0
- Velvetleaf plant response rating [17, 25]: 0
- Velvetleaf plant response rating (0 to 10 scale) ([17]; Preemergence, Rate 250 g/ha): 0
- Velvetleaf plant response rating [17, 26]: 7
- Plant response rating, Velvetleaf [17, 29]: 2
- S. Flatsedge plant response rating [18]: 0
- Rape plant response rating [19, 21]: 0
- Rape plant response rating [19, 22]: 0
- Plant response rating, Rape [19, 23]: 0
- Rape plant response rating [19, 24]: 0
- Rape plant response rating [19, 25]: 0
- Rape plant response rating (0 to 10 scale) ([19]; Preemergence, Rate 250 g/ha): 4
- Rape plant response rating [19, 26]: 9
- Plant response rating, Rape [19, 27]: 0
- Giant foxtail plant response rating [20, 21]: 0
- Giant foxtail plant response rating [20, 22]: 3
- Plant response rating, Giant foxtail [20, 23]: 4
- Giant foxtail plant response rating [20, 24]: 9
- Giant foxtail plant response rating [20, 25]: 9
- Giant foxtail plant response rating (0 to 10 scale) ([20]; Preemergence, Rate 250 g/ha): 9
- Giant foxtail plant response rating [20, 26]: 10
- Plant response rating, Giant foxtail [20, 27]: 4
